27 compounds from patent US11053213B2, “Pharmaceutical compounds” (ALMAC DISCOVERY LIMITED, priority 2016, dated 2021) can be followed below.

For the experiment, the target named is USP19 (Homo sapiens (Human), UniProt O94966). Description: USP19 activity assay (fluorescence polarisation, Ubiquitin-Lys-TAMRA substrate). In kind it is biochemical. Particulars: full-length USP19 2.5 nM, 30 min pre-incubation, Ub substrate 500 nM; average of at least two duplicate experiments.
Sequence of USP19 (O94966 whole entry): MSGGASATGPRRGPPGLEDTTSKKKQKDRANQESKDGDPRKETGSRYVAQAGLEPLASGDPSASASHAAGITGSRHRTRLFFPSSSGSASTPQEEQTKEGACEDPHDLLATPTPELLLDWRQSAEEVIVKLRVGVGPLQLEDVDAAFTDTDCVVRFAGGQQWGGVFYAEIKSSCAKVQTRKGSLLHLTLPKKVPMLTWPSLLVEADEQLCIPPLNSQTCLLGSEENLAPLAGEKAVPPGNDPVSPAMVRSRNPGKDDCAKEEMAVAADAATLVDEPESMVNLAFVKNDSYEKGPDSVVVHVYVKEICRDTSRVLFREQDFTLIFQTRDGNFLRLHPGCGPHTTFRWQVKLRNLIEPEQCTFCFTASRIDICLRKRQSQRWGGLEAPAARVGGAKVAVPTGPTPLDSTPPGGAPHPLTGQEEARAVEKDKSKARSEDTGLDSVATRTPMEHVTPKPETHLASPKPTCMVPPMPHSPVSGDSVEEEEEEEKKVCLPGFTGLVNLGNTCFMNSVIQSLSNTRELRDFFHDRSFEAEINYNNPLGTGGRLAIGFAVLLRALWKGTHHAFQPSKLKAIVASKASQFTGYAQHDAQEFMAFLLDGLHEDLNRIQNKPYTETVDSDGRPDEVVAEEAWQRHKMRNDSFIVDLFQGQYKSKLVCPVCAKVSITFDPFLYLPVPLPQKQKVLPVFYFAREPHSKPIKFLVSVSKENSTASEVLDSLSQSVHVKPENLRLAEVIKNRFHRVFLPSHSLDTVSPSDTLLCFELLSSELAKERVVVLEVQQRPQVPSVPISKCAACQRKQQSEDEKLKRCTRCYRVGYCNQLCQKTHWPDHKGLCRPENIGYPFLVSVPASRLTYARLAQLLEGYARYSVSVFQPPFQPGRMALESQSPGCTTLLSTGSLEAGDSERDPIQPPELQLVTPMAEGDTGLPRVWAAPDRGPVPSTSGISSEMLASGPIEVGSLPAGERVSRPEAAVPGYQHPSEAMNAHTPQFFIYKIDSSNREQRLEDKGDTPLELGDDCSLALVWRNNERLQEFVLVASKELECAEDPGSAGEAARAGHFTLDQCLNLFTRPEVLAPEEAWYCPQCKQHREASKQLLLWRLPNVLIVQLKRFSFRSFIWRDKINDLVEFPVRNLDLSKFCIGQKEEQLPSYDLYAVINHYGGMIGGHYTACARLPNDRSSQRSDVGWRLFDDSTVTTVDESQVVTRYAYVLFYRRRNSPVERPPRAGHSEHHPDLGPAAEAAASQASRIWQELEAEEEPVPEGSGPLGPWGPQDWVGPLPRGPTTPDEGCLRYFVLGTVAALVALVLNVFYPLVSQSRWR

As for `C[C@H](CC1CCCCC1)C(=O)N1CCC(O)(Cn2cc(C(=O)N(C)C)c(-c3ccccc3CO)cc2=O)C2(CCCC2)C1` (stereo partly drawn) [Example 151, 1-((7-((R)-3-Cyclohexyl-2-methylpropanoyl)-10-hydroxy-7-azaspiro[4.5]decan-10-yl)methyl)-4-(2-(hydroxymethyl)phenyl)-N,N-dimethyl-6-oxo-1,6-dihydropyridine-3-carboxamide], the IC50 (as a rule, the concentration needed to halve the response being measured) was 5 to 50 µM.
To `CC(C)N(C)C(=O)c1cn(CC2(O)CCN(C(=O)[C@H](C)CC3CCCCC3)CC2(C)C)c(=O)cc1-c1ccccc1` (mixture of isomers) [Example 73, 1-(((R)-1-((R)-3-Cyclohexyl-2-methylpropanoyl)-4-hydroxy-3,3-dimethylpiperidin-4-yl)methyl)-N-isopropyl-N-methyl-6-oxo-4-phenyl-1,6-dihydropyridine-3-carboxamide and 1-(((S)-1-((R)-3-Cyclohexyl-2-methylpropanoyl)-4-hydroxy-3,3-dimethylpiperidin-4-yl)methyl)-N-isopropyl-N-methyl-6-oxo-4-phenyl-1,6-dihydropyridine-3-carboxamide] belongs under 0.5 µM; to `CC(C)C(=O)N1CCC(O)(Cn2cc(C(=O)N(C)C)c(-c3ccccc3)cc2=O)C2(CCCC2)C1` (stereo not drawn) [Example 147, 1-((10-Hydroxy-7-isobutyryl-7-azaspiro[4.5]decan-10-yl)methyl)-N,N-dimethyl-6-oxo-4-phenyl-1,6-dihydropyridine-3-carboxamide], 50 to 250 µM; to `O=C(CCC1CCCCC1)N1C[C@H]2CC[C@@H](C1)C2(O)Cn1cnc(-c2ccccc2F)cc1=O` (stereo partly drawn) [Example 113, 3-(((1R,5S)-3-(3-Cyclohexylpropanoyl)-8-hydroxy-3-azabicyclo[3.2.1]octan-8-yl)methyl)-6-(2-fluorophenyl)pyrimidin-4(3H)-one], 50 to 250 µM.
In the case of `C[C@H](CC1CCCCC1)C(=O)N1CCC(O)(Cn2cc(C(=O)N(C)C)c(-c3ccccc3CN)cc2=O)C2(CCCC2)C1` (stereo partly drawn) [Example 161, 4-(2-(Aminomethyl)phenyl)-1-((7-((R)-3-cyclohexyl-2-methylpropanoyl)-10-hydroxy-7-azaspiro[4.5]decan-10-yl)methyl)-N,N-dimethyl-6-oxo-1,6-dihydropyridine-3-carboxamide], the IC50 was 5 to 50 µM.
The value for `CN(C)C(=O)c1cn(CC2(O)CCN(C(=O)C3CC34CC4)CC23CCCC3)c(=O)cc1-c1ccccc1` (stereo not drawn) [Example 195, 1-((10-Hydroxy-7-(spiro[2.2]pentane-1-carbonyl)-7-azaspiro[4.5]decan-10-yl)methyl)-N,N-dimethyl-6-oxo-4-phenyl-1,6-dihydropyridine-3-carboxamide] was 5 to 50 µM; that for `C[C@H](CC1CCCCC1)C(=O)N1CCC(O)(Cn2cnc(-c3ccc(CN)cc3)cc2=O)C(C)(C)C1` (stereo partly drawn) [Example 140, 6-(4-(Aminomethyl)phenyl)-3-((1-((R)-3-cyclohexyl-2-methylpropanoyl)-4-hydroxy-3,3-dimethylpiperidin-4-yl)methyl)pyrimidin-4(3H)-one] was 0.5 to 5 µM; that for `CC(=O)N1CCN(C(=O)c2cn(CC3(O)CCN(C(=O)[C@H](C)CC4CCCCC4)CC3(C)C)c(=O)cc2-c2ccccc2)CC1` (stereo partly drawn) [Example 169, 5-(4-Acetylpiperazine-1-carbonyl)-1-((1-((R)-3-cyclohexyl-2-methylpropanoyl)-4-hydroxy-3,3-dimethylpiperidin-4-yl)methyl)-4-phenylpyridin-2(1H)-one] was under 0.5 µM.
To `CC(C)C(CC1CCCCC1)C(=O)N1CCC(O)(Cn2cnc(-c3ccccc3F)cc2=O)C(C)(C)C1` (stereo not drawn) [Example 25, 3-((1-(2-(Cyclohexylmethyl)-3-methylbutanoyl)-4-hydroxy-3,3-dimethylpiperidin-4-yl)methyl)-6-(2-fluorophenyl)pyrimidin-4(3H)-one] belongs 0.5 to 5 µM; to `C[C@H](CC(=O)N1CCC(O)(Cn2cc(-c3ccnn3C)c(-c3ccccc3)cc2=O)CC1)c1ccccc1` [Example 9, (R)-1-((4-Hydroxy-1-(3-phenylbutanoyl)piperidin-4-yl)methyl)-5-(1-methyl-1H-pyrazol-5-yl)-4-phenylpyridin-2(1H)-one], 5 to 50 µM.
The value for `Cc1nc(-c2ccccc2)cc(=O)n1CC1(O)CCN(C(=O)C[C@@H](C)c2ccccc2)CC1` [Example 18, (R)-3-((4-Hydroxy-1-(3-phenylbutanoyl)piperidin-4-yl)methyl)-2-methyl-6-phenylpyrimidin-4(3H)-one] was 5 to 50 µM; that for `CCOCCC(=O)N1CCC(O)(Cn2cc(C(=O)N(C)C)c(-c3ccccc3)cc2=O)C2(CCCC2)C1` (stereo not drawn) [Example 182, 1-((7-(3-Ethoxypropanoyl)-10-hydroxy-7-azaspiro[4.5]decan-10-yl)methyl)-N,N-dimethyl-6-oxo-4-phenyl-1,6-dihydropyridine-3-carboxamide] was 5 to 50 µM.
For `CC1(C)CN(C(=O)CCC2CCCCC2)CCC1(O)Cn1cnc(-c2ccccc2F)cc1=O` (racemic) [Example 78, (R,S)-3-((1-(3-Cyclohexylpropanoyl)-4-hydroxy-3,3-dimethylpiperidin-4-yl)methyl)-6-(2-fluorophenyl)pyrimidin-4(3H)-one], the IC50 lay in the range of 0.5 to 5 µM.
On to `C[C@H](CC1CCC1)C(=O)N1CCC(O)(Cn2cc(C(=O)N(C)C)c(-c3ccccc3)cc2=O)C(C)(C)C1` (stereo partly drawn) [Example 128, 1-((1-((R)-3-Cyclobutyl-2-methylpropanoyl)-4-hydroxy-3,3-dimethylpiperidin-4-yl)methyl)-N,N-dimethyl-6-oxo-4-phenyl-1,6-dihydropyridine-3-carboxamide], for which the IC50 is 0.5 to 5 µM.
The value for `C[C@H](CC(=O)N1CCC(O)(Cn2cc(C(=O)N(C)C)c(-c3ccccc3)cc2=O)C2(CCCC2)C1)c1ccccc1` (stereo partly drawn) [Example 185, 1-((10-Hydroxy-7-((R)-3-phenylbutanoyl)-7-azaspiro[4.5]decan-10-yl)methyl)-N,N-dimethyl-6-oxo-4-phenyl-1,6-dihydropyridine-3-carboxamide] was 0.5 to 5 µM.
To `C[C@H](CC1CCCCC1)C(=O)N1CC[C@@](O)(Cn2cc(C(=O)N3CCNCC3)c(-c3ccccc3)cc2=O)C2(CCCC2)C1` [Example 212, 1-(((S)-7-((R)-3-Cyclohexyl-2-methylpropanoyl)-10-hydroxy-7-azaspiro[4.5]decan-10-yl)methyl)-4-phenyl-5-(piperazine-1-carbonyl)pyridin-2(1H)-one] belongs under 0.5 µM; to `CC(Cn1cccn1)C(=O)N1CCC(O)(Cn2cnc(-c3ccccc3F)cc2=O)C(C)(C)C1` (stereo not drawn) [Example 150, 6-(2-Fluorophenyl)-3-((4-hydroxy-3,3-dimethyl-1-(2-methyl-3-(1H-pyrazol-1-yl)propanoyl)piperidin-4-yl)methyl)pyrimidin-4(3H)-one], 50 to 250 µM; to `CC(OC1CCCCC1)C(=O)N1CCC(O)(Cn2cc(C(=O)N(C)C)c(-c3ccccc3)cc2=O)C2(CCCC2)C1` (stereo not drawn) [Example 199, 1-((7-(2-(Cyclohexyloxy)propanoyl)-10-hydroxy-7-azaspiro[4.5]decan-10-yl)methyl)-N,N-dimethyl-6-oxo-4-phenyl-1,6-dihydropyridine-3-carboxamide], 5 to 50 µM.
In the case of `C[C@H](CC(=O)N1C[C@H]2CC[C@@H](C1)C2(O)Cn1cnc(-c2ccccc2F)cc1=O)c1ccccc1` (stereo partly drawn) [Example 60], the IC50 fell in the range of 5 to 50 µM.
With `C[C@H](CC1CCCCC1)C(=O)N1CC[C@@](O)(Cn2cc(C(=O)N3CCNC[C@H]3CO)c(-c3ccccc3)cc2=O)C(C)(C)C1` [Example 208, 1-(((S)-1-((R)-3-Cyclohexyl-2-methylpropanoyl)-4-hydroxy-3,3-dimethylpiperidin-4-yl)methyl)-5-((S)-2-(hydroxymethyl)piperazine-1-carbonyl)-4-phenylpyridin-2(1H)-one], the half-maximal inhibitory concentration (IC50) was under 0.5 µM.
To `C[C@H](CC1CCCCC1)C(=O)N1CCC(O)(Cn2cnc(-c3ccccc3)cc2=O)C(C)(C)C1` (mixture of isomers) [Example 50, 3-(((R)-1-((R)-3-Cyclohexyl-2-methylpropanoyl)-4-hydroxy-3,3-dimethylpiperidin-4-yl)methyl)-6-phenylpyrimidin-4(3H)-one and 3-(((S)-1-((R)-3-Cyclohexyl-2-methylpropanoyl)-4-hydroxy-3,3-dimethylpiperidin-4-yl)methyl)-6-phenylpyrimidin-4(3H)-one] belongs under 0.5 µM; to `C[C@H](CC(=O)N1CCC(O)(Cn2cc(CN(C)C)c(-c3ccccc3)cc2=O)CC1)c1ccccc1` [Example 46, (R)-5-((Dimethylamino)methyl)-1-((4-hydroxy-1-(3-phenylbutanoyl)piperidin-4-yl)methyl)-4-phenylpyridin-2(1H)-one], 50 to 250 µM.
As for `C[C@H](CC1CCCCC1)C(=O)N1CC[C@@](O)(Cn2cc(C(=O)N3CCN(C)CC3)c(-c3ccccc3)cc2=O)C2(CCCC2)C1` [Example 240, 1-(((S)-7-((R)-3-Cyclohexyl-2-methylpropanoyl)-10-hydroxy-7-azaspiro[4.5]decan-10-yl)methyl)-5-(4-methylpiperazine-1-carbonyl)-4-phenylpyridin-2(1H)-one], the half-inhibitory concentration (IC50) was under 0.5 µM.
To `C[C@H](CC(=O)N1CCC(O)(Cn2nc(-c3ccccc3)c(-c3ccccc3)cc2=O)CC1)c1ccccc1` [Example 19, (R)-2-((4-Hydroxy-1-(3-phenylbutanoyl)piperidin-4-yl)methyl)-5,6-diphenylpyridazin-3(2H)-one] belongs 5 to 50 µM.
To `O=C(CCc1ccc(F)cc1)N1CCC(O)(Cn2cnc(-c3ccccc3F)cc2=O)CC1` [Example 82, 6-(2-Fluorophenyl)-3-((1-(3-(4-fluorophenyl)propanoyl)-4-hydroxypiperidin-4-yl)methyl)pyrimidin-4(3H)-one] belongs 50 to 250 µM.
In the case of `C[C@H](CC(=O)N1CCC(O)(Cc2cnc(-c3ccccc3)[nH]c2=O)CC1)c1ccccc1` [Example 33, (R)-5-((4-Hydroxy-1-(3-phenylbutanoyl)piperidin-4-yl)methyl)-2-phenylpyrimidin-4(3H)-one], the IC50 lay within 5 to 50 µM.
To `CC1(C(=O)N2CCC(O)(Cn3cnc(-c4ccccc4F)cc3=O)CC2)CCCCC1` [Example 42, 6-(2-Fluorophenyl)-3-((4-hydroxy-1-(1-methylcyclohexanecarbonyl)piperidin-4-yl)methyl)pyrimidin-4(3H)-one] belongs 5 to 50 µM.
